# Data reported in US20140228366A1, “HETEROARYL-SUBSTITUTED PYRAZOLOPYRIDINES AND USE THEREOF AS SOLUBLE GUANYLATE CYCLASE STIMULATORS” (BAYER INTELLECTUAL PROPERTY GMBH, priority 2011, published 2014).
# Assays:
# [1] = test system: rabbit aorta rings; assay: Vasorelaxant effect in vitro (phenylephrine-contracted aorta rings); conditions: Oryctolagus cuniculus, phenylephrine contraction, concentration reducing control contraction by 50%
# Experimental: Rabbits are stunned by a blow to the neck and exsanguinated. The aorta is removed, freed from adhering tissue and divided into rings of a width of 1.5 mm. The rings are placed individually under an initial tension in 5 ml organ baths with Krebs-Henseleit solution which is at 37° C., is gassed with carbogen and has the following composition (in each case mM): sodium chloride: 119; potassium chloride: 4.8; calcium chloride dihydrate: 1; magnesium sulphate heptahydrate: 1.4; potassium dihydrogenphosphate: 1.2; sodium bicarbonate: 25; glucose: 10. The contractile force is determined with Statham UC2 cells, amplified and digitalized using A/D transducers (DAS-1802 HC, Keithley Instruments Munich), and recorded in parallel on linear recorders. To produce a contraction, phenylephrine is added to the bath cumulatively in increasing concentration. After several control cycles, the substance to be investigated is added in each further run in increasing dosage in each case, and the height of the contraction achieved is compared with the height of the contraction reached in the last preceding run. This is used to calculate the concentration needed to reduce the magnitude of the control value by 50% (IC50 value). The standard administration volume is 5 μl; the DMSO content in the bath solution corresponds to 0.1%.
# [2] = Pharmacokinetic parameters following intravenous administration in rats; assay type: in vivo, male Wistar rats; conditions: intravenous administration of 0.3 mg/kg; for MRT / half-life: male, Wistar, rat, plasma; for half-life: terminal half life
# Experimental: The pharmacokinetic parameters of the compounds of the formula (I) according to the invention are determined in male CD-1 mice, male Wistar rats and/or female beagles. The administration volume is 5 ml/kg for mice, 5 ml/kg for rats and 0.5 ml/kg for dogs. Intravenous administration is via a formulation of species-specific plasma/DMSO (99/1) in the case of mice and rats and via water/PEG400/ethanol (50/40/10 or 30/60/10) in the case of dogs. The removal of blood from rats is simplified by inserting a silicone catheter into the right Vena jugularis externa prior to substance administration. The surgical intervention takes place one day prior to the experiment with isofluran anesthesia and administration of an analgetic (atropine/rimadyl (3/1) 0.1 ml s.c.). Substance administration is as i.v. bolus in the case of mice, as i.v. bolus or via a 15-minute infusion in the case of rats and via a 15-minute infusion in the case of dogs. Removal of blood is after 0.033, 0.083, 0.17, 0.5, 1, 2, 3, 4, 6, 7 and 24 hours in the case of mice and, after a 15-minute infusion, after 0.083, 0.25, 0.28, 0.33, 0.42, 0.75, 1, 2, 3, 4, 6, 7 (or 8 in the case of Example 3) and 24 hours in the case of dogs and rats and after an i.v. bolus administration, after 0.033, 0.083, 0.17, 0.5, 1, 2, 3, 4, 6, 7 and 24 hours in the case of rats. For all species, oral administration of the dissolved substance via gavage is carried out based on a water/PEG400/ethanol formulation (50/40/10). Here, the removal of blood from rats and dogs is after 0.083, 0.17, 0.5, 0.75, 1, 2, 3, 4, 6, 7 and 24 hours. The blood is removed into heparinized tubes. The blood plasma is then obtained by centrifugation; if required, it can be stored at −20° C. until further processing.
# An internal standard (ZK 228859) is added to the samples of the compounds of the formula (I) according to the invention, calibration samples and QCs, and the protein is precipitated using excess acetonitrile. After addition of an ammonium acetate buffer (0.01 M, pH 6.8) and subsequent vortexing, the mixture is centrifuged at 1000 g and the supernatant is examined by LC-MS/MS (API 4000, AB Sciex). Chromatographic separation is carried out on an Agilent 1100-HPLC. The injection volume is 10 μl. The separation column used is a Phenomenex Luna 5μ C8(2) 100A 50×2 mm, adjusted to a temperature of 40° C. A binary mobile phase gradient at 500 μl/min is used (A: 0.01M ammonium acetate buffer pH 6.8, B: 0.1% formic acid in acetonitrile): 0 min (90% A), 1 min (90% A), 3 min (10% A), 4 min (10% A), 4.50 min (90% A), 6 min (90% A). The temperature of the Turbo V ion source is 500° C. (Example 2), 400° C. (Example 3) or 450° C. (Example 6). The following MS instrument parameters are used: curtain gas 15 units (Examples 2 and 3) or 10 units (Example 6), ion spray voltage 4.8 kV, gas 1 45 units (Example 2) or 50 units (Examples 3 and 6), gas 2 35 units (Examples 2 and 6) or 40 units (Example 3), CAD gas 4 units (Examples 2 and 6) or 8 units (Example 3). The substances are quantified by peak heights or areas using extracted ion chromatograms of specific MRM experiments.
# The plasma concentration/time plots determined are used to calculate the pharmacokinetic parameters such as AUC, Cmax, t112 (terminal half life), MRT (mean residence time) and CL (clearance), using the validated pharmacokinetic calculation program KinEx (Vers. 3).
# Since the substance quantification is performed in plasma, it is necessary to determine the blood/plasma distribution of the substance in order to be able to adjust the pharmacokinetic parameters correspondingly. For this purpose, a defined amount of substance is incubated in heparinized whole blood of the species in question in a rocking roller mixer for 20 min. After centrifugation at 1000 g, the plasma concentration is measured (see above) and determined by calculating the quotient of the Cblood/Cplasma values.
# [3] = target: T1, recombinant guanylate cyclase reporter cell line (Rattus norvegicus, UniProt P19686+P20595); assay: Effect on a recombinant guanylate cyclase reporter cell line; assay type: cell-based
# T1 construct: expressed in transfected cells; host or cells: recombinant reporter cell line
# T1 sequence (P19686 1-690): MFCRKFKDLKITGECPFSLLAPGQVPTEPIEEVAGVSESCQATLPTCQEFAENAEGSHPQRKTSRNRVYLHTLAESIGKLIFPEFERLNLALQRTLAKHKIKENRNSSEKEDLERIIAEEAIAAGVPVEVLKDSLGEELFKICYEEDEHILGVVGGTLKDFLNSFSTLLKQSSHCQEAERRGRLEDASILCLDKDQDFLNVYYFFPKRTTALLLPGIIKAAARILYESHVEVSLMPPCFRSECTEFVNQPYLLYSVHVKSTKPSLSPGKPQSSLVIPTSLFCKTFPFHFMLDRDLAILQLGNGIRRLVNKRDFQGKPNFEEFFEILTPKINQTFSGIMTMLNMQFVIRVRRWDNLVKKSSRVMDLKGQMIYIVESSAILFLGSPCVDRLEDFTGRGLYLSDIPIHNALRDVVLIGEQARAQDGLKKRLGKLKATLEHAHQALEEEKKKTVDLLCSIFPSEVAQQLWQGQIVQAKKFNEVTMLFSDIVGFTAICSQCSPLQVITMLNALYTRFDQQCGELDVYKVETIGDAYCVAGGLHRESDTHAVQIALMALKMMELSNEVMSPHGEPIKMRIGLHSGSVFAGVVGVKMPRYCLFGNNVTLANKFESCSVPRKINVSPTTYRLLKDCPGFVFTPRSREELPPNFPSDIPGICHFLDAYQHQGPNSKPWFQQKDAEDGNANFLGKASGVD
# T1 sequence (P20595 1-619): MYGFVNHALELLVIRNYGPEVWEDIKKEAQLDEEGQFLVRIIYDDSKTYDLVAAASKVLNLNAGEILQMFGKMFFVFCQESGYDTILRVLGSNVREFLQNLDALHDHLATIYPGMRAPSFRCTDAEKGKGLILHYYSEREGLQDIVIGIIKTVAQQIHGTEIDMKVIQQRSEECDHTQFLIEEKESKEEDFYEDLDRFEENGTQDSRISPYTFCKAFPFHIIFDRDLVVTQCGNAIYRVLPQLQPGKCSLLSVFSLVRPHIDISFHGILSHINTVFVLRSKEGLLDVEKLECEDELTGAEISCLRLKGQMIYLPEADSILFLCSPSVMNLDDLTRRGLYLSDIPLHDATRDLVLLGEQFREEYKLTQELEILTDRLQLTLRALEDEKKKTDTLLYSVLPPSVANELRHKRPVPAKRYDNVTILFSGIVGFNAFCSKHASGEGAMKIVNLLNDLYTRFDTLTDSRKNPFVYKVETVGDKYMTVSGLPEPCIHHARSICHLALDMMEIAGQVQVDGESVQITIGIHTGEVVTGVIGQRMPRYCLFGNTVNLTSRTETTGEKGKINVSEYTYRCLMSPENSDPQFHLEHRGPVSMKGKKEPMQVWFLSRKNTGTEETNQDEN
# Experimental: The cellular activity of the compounds according to the invention is determined using a recombinant guanylate cyclase reporter cell line, as described in F. Wunder et al., Anal. Biochem. 339, 104-112 (2005).
SMILES,IC50 [1] [nM],AUCnorm [2] [kg·h/L],CLblood [2] [mL/min/kg],MRT [2] [h],half-life [2] [h],MEC (minimum effective concentration) [3] [µM]
"CC1(C)C(=O)Nc2nc(-c3nn(Cc4ncccc4F)c4ncc(F)cc34)nnc21 [Example 2, 3-{5-Fluoro-1-[(3-fluoropyridin-2-yl)methyl]-1H-pyrazolo[3,4-b]pyridin-3-yl}-7,7-dimethyl-5,7-dihydro-6H-pyrrolo[2,3-e][1,2,4]triazin-6-one]",234,13,2.17,7.9,6.1,1
"CC1(C)C(=O)Nc2nc(-c3nn(Cc4ncccc4F)c4ncc(F)cc34)nc(N)c21 [Example 3, 4-Amino-2-{5-fluoro-1-[(3-fluoropyridin-2-yl)methyl]-1H-pyrazolo[3,4-b]pyridin-3-yl}-5,5-dimethyl-5,7-dihydro-6H-pyrrolo[2,3-d]pyrimidin-6-one]",34,0.93,15.5,1.3,1,0.3
"CC1(C)C(=O)Nc2nc(-c3nn(Cc4ncccc4F)c4ncc(F)cc34)ncc21 [Example 6, 2-{5-Fluoro-1-[(3-fluoropyridin-2-yl)methyl]-1H-pyrazolo[3,4-b]pyridin-3-yl}-5,5-dimethyl-5,7-dihydro-6H-pyrrolo[2,3-d]pyrimidin-6-one]",82,3.5,6.17,5.6,4.4,0.03
